In assay [1] the target is ATR kinase (Homo sapiens (Human), UniProt Q13535). Nature of the assay: ATR inhibition assay (mobility shift assay, phosphorylation of FAM-RAD17). It is filed as biochemical. The following applies: ATR kinase (Eurofins), substrate FAM-RAD17, mobility shift. As for the experimental part: Assay 1: ATR Inhibition Assay
Detection of ATR kinase activity utilized the Mobility shift assay to measure the phosphorylation of the substrate protein FAM-RAD17 (GL, Cat. No. 514318, Lot. No. P19042-MJ524315). The assay was developed and conducted at Chempartner. All the test compounds were dissolved in 100% DMSO at concentration of 20 mM, then prepare compounds and conducted the assay as follows: • 1) Transfer 80 μl 20 mM compound to 40 μl of 100% DMSO in a 96-well plate. • 2) Serially dilute the compound by transferring 20 μl to 60 μl of 100% DMSO in the next well and so forth for a total of 10 concentrations. • 3) Add 100 μl of 100% DMSO to two empty wells for no compound control and no enzyme control in the same 96-well plate. Mark the plate as source plate. • 4) Transfer 40 μl of compound from source plate to a new 384-well plate as the intermediate plate. • 5) Transfer 60 nl compounds to assay plate by Echo. • 6) Add ATR kinase (Eurofins, Cat. No. 14-953, Lot. No. D14 JP007N) into Kinase base buffer (50 mM HEPES, pH 7.5; 0.0015% Brij-35; 0.01% Triton) to prepare 2× enzyme solution, then add 10 μl of 2× enzyme solution to each well of the 384-well assay plate, incubate at room temperature for 10 min. • 7) Add FAM-RAD17 and ATP (Sigma, Cat. No. A7699-1G, CAS No. 987-65-5) in the kinase base buffer to prepare 2×peptide solution, then add 10 μl to the assay plate. • 8) Incubate at 28° C. for specified period of time. Add 40 μl of stop buffer (100 mM HEPES, pH 7.5; 0.015% Brij-35; 0.2% Coating Reagent #3; 50 mM EDTA) to stop reaction. • 9) Collect data on Caliper. Convert conversion values to inhibition values.
Percent inhibition=(max−conversion)/(max−min)*100 wherein “max” stands for DMSO control; “min” stands for low control.
Fit the data in XLFit excel add-in version 5.4.0.8 to obtain IC50 values. Equation used is:
Y=Bottom+(Top−Bottom)/(1+(IC50/X)^HillSlope) wherein X means concentration in a format not transformed to logarithms.

In assay [2] the test system is LoVo (CCL-229) cells. Briefly: Tumor cell anti-proliferation assay (CTG assay). It is filed as cell-based. As to conditions: LoVo human colorectal cancer cells, 96 h, CellTiter-Glo. As to the method: Assay 2: Tumor Cell Anti-proliferation Assay (CTG Assay)
Human colorectal cancer cells HT-29 (HTB-38) and LoVo (CCL-229) were selected for the CTG assay, the two cell lines were originally obtained from the American Type Culture Collection (ATCC). FBS and appropriate additives were added into base medium to prepare complete medium, then the cell layer was briefly rinsed with 0.25% (w/v) Trypsin-0.038% (w/v) EDTA solution to remove all traces of serum that contains trypsin inhibitor. After that, appropriate volume of Trypsin-EDTA solution was added to flask and cells under an inverted microscope were observed until cell layer was dispersed. At last, appropriate volume of complete growth medium was added and cells were aspirated by gently pipetting. Numbers were collected and counted with Vi-cell XR and cell density was adjusted, cells were seeded into 96-well opaque-walled clear bottom tissue-culture treated plates in the CO2 incubator for 20-24 hours. All the test compounds were at 10 mM in DMSO. Compounds were then added to the cell media in 3-fold serial dilutions, the final DMSO concentration was 0.5%. Plates were incubated for 96 h at 5% CO2, 37° C. Before the measurement, the appropriate volume of CellTiter-Glo Buffer was transferred into the amber bottle containing CellTiter-Glo substrate to reconstitute the lyophilized enzyme/substrate mixture, mixed gently, thereby forming the CellTiter-Glo Reagent (Promega Cat. No. G7573). The plate and its contents were equilibrated to room temperature for approximately 30 minutes, then 100 μL of CellTiter-Glo Reagent was added to the assay plate, the contents were mixed for 2 minutes on an orbital shaker to induce cell lysis, incubated at room temperature for 10 minutes to stabilize luminescent signal. At last the clear bottom was pasted with white back seal and luminescence was recorded with Enspire. IC50 and GI50 values were calculated with XLFit curve fitting software using 4 Parameter Logistic Model Y=Bottom+(Top−Bottom)/(1+(IC50/X)^HillSlope).
In general terms: Cellular ATP, detected with luciferase, serves as a proxy for viable cell number.

Sequence of ATR kinase (Q13535 whole entry): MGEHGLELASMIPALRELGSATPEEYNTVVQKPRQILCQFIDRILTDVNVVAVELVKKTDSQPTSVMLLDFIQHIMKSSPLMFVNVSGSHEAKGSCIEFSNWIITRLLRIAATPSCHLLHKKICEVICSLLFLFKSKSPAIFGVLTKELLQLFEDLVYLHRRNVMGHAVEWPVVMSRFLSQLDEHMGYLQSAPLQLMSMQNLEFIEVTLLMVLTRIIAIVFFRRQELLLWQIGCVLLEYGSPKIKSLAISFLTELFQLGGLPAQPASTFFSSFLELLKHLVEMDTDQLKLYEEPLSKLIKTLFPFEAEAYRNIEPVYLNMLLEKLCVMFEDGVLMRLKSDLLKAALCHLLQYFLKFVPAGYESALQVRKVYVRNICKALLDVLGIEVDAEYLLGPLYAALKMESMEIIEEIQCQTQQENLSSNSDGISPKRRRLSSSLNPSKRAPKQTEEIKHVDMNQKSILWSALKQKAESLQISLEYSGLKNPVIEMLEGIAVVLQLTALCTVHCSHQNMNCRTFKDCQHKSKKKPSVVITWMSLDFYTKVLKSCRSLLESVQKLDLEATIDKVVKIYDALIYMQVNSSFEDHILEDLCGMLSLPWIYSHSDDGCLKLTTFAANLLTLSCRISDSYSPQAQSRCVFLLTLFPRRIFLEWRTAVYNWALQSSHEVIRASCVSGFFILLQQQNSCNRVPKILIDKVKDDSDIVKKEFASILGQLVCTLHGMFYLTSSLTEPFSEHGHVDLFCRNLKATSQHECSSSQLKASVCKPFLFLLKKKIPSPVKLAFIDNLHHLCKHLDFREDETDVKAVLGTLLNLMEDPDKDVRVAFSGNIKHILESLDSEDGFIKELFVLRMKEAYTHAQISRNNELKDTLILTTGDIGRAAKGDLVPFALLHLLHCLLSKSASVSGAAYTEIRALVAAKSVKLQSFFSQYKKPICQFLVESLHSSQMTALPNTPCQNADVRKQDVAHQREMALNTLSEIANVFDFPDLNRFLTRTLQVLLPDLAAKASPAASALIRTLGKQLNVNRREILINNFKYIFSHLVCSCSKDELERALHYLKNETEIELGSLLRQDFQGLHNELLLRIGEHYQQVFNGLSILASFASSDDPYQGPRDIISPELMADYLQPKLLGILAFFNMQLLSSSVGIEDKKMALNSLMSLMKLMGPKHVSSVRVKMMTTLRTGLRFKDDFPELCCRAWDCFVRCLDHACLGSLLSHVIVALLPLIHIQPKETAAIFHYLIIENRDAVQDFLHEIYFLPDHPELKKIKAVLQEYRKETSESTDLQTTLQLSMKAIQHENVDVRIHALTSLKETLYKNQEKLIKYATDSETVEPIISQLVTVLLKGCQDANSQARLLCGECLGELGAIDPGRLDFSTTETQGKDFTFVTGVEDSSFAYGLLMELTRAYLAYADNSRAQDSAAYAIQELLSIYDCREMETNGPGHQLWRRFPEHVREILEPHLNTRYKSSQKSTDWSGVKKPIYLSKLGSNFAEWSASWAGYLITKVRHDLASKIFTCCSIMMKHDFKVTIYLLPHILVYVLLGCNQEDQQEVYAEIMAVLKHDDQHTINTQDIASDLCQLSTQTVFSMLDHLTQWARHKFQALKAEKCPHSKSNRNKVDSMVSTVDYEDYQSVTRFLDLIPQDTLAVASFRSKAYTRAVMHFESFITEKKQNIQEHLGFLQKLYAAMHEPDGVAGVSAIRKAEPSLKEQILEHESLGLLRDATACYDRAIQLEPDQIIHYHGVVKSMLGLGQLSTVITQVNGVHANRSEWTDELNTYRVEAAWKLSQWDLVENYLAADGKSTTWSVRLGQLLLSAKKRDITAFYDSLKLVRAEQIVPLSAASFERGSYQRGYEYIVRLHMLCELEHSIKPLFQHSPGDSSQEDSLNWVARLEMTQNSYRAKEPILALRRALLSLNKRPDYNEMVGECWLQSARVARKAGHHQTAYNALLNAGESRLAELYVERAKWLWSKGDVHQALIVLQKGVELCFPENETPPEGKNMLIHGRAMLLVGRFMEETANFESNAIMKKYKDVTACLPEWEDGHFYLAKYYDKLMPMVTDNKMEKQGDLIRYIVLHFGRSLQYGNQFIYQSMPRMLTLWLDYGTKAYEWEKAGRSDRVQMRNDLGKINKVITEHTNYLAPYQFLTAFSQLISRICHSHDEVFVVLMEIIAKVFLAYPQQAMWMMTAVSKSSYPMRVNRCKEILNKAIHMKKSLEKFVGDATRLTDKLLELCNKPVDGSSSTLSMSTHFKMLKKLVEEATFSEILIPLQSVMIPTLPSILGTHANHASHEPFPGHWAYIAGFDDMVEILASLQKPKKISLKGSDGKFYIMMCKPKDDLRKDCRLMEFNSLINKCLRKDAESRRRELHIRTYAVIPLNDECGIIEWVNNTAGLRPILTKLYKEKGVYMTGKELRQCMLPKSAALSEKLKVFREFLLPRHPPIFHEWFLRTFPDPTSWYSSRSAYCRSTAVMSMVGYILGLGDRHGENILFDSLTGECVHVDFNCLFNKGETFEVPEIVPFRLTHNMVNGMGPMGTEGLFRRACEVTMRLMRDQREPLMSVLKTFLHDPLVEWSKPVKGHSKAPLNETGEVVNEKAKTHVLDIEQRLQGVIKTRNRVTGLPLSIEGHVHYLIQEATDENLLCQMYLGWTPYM
Sequence of ATR kinase (Q8WXE1 whole entry partner): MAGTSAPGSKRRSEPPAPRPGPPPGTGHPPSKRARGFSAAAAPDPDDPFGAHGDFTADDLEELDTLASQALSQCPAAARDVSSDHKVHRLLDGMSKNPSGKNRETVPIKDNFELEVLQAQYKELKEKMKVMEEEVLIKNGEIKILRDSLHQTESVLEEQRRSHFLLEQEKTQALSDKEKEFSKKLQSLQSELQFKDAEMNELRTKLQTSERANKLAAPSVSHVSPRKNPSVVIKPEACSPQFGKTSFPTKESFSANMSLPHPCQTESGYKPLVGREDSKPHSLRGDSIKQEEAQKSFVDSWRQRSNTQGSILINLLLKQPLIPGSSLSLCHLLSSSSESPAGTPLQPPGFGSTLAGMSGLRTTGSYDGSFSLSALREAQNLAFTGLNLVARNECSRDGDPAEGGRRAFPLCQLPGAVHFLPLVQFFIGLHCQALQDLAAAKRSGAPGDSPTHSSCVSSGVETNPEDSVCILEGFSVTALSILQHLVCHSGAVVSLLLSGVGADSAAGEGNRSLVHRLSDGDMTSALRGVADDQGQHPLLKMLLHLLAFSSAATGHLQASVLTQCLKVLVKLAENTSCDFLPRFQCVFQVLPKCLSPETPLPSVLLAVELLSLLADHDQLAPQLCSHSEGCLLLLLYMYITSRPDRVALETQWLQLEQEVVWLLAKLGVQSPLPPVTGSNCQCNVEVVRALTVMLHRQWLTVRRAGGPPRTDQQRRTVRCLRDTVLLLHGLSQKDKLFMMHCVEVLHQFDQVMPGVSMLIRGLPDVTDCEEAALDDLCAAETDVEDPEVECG

In general, IC50 refers to the concentration that inhibits the measured activity by half. For the compound `C[C@@H]1COCCN1c1cc(-c2ccnn2C)n2ncc(-c3ccn[nH]3)c2n1` [Example 1, (R)-3-methyl-4-(7-(1-methyl-1H-pyrazol-5-yl)-3-(1H-pyrazol-5-yl)pyrazolo[1,5-a]pyrimidin-5-yl)morpholine], the IC50 in assay [1] was below 100 nM; in assay [2], 491 nM.

For the compound `C[C@@H]1COCCN1c1cc(C2(S(C)(=O)=O)CC2)n2ncc(-c3ccn[nH]3)c2n1` [Example 5, (R)-3-methyl-4-(7-(1-(methylsulfonyl)cyclopropyl)-3-(1H-pyrazol-5-yl)pyrazolo[1,5-a]pyrimidin-5-yl)morpholine], the concentration for half-maximal inhibition (IC50) in assay [1] was below 100 nM; in assay [2], 516 nM.

In the case of `C[C@@H]1COCCN1c1cc(-c2cccnc2F)n2ncc(-c3ccn[nH]3)c2n1` [Example 6, (R)-4-(7-(2-fluoropyridin-3-yl)-3-(1H-pyrazol-5-yl)pyrazolo[1,5-a]pyrimidin-5-yl)-3-methylmorpholine], the IC50 in assay [1] is below 100 nM; in assay [2], 803 nM.

Regarding `C[C@@H]1COCCN1c1cc(C2([S@@](C)(=N)=O)CC2)n2ncc(-c3ccn[nH]3)c2n1` [Example 7b, (S)-imino(methyl)(1-(5-((R)-3-methylmorpholino)-3-(1H-pyrazol-5-yl)pyrazolo[1,5-a]pyrimidin-7-yl)cyclopropyl)-λ6-sulfanone], the IC50 in assay [1] is below 100 nM.

With `C[C@@H]1COCCN1c1cc(C2(S(C)(=O)=O)CC2)n2ncc(-c3ccc[nH]3)c2n1` [Example 8, (R)-3-methyl-4-(7-(1-(methylsulfonyl)cyclopropyl)-3-(1H-pyrrol-2-yl)pyrazolo[1,5-a]pyrimidin-5-yl)morpholine], the IC50 in assay [1] is below 100 nM.

With `C[C@@H]1COCCN1c1cc(C2(S(C)(=O)=O)CC2)n2ncc(-c3cc[nH]c3)c2n1` [Example 9, (R)-3-methyl-4-(7-(1-(methylsulfonyl)cyclopropyl)-3-(1H-pyrrol-3-yl)pyrazolo[1,5-a]pyrimidin-5-yl)morpholine], the IC50 in assay [1] is below 100 nM.

For the compound `C[C@@H]1COCCN1c1cc(-c2ccn[nH]2)n2ncc(-c3ccn[nH]3)c2n1` [Example 10, (R)-4-(3,7-di(1H-pyrazol-5-yl)pyrazolo[1,5-a]pyrimidin-5-yl)-3-methylmorpholine], the IC50 in assay [1] was below 100 nM.

Take `Cc1cc(-c2cnn3c(C4(S(C)(=O)=O)CC4)cc(N4CCOC[C@H]4C)nc23)[nH]n1` [Example 11, (R)-3-methyl-4-(3-(3-methyl-1H-pyrazol-5-yl)-7-(1-(methylsulfonyl)cyclopropyl)pyrazolo[1,5-a]pyrimidin-5-yl)morpholine]: the IC50 in assay [1] is below 100 nM; in assay [2], 384 nM.

With `Cc1cn[nH]c1-c1cnn2c(C3(S(C)(=O)=O)CC3)cc(N3CCOC[C@H]3C)nc12` [Example 14, (R)-3-methyl-4-(3-(4-methyl-1H-pyrazol-5-yl)-7-(1-(methylsulfonyl)cyclopropyl)pyrazolo[1,5-a]pyrimidin-5-yl)morpholine], the IC50 in assay [1] is above 500 nM.

`Cc1cc(-c2cnn3c(-c4ccnn4C)cc(N4CCOC[C@H]4C)nc23)[nH]n1` [Example 18, (R)-3-methyl-4-(7-(1-methyl-1H-pyrazol-5-yl)-3-(3-methyl-1H-pyrazol-5-yl)pyrazolo[1,5-a]pyrimidin-5-yl)morpholine]: the results for the IC50 in assay [1] and in assay [2] were below 100 nM and 384 nM, respectively.

For the compound `C[C@@H]1COCCN1c1cc(-c2ccnn2C)c2ncc(-c3ccn[nH]3)n2n1` [Example 21, (R)-3-methyl-4-(8-(1-methyl-1H-pyrazol-5-yl)-3-(1H-pyrazol-5-yl)imidazo[1,2-b]pyridazin-6-yl)morpholine], the IC50 in assay [1] is below 100 nM.

Take `C[C@@H]1COCCN1c1cc(C2(S(C)(=O)=O)CC2)c2ncc(-c3ccn[nH]3)n2n1` [Example 22, (R)-3-methyl-4-(8-(1-(methylsulfonyl)cyclopropyl)-3-(1H-pyrazol-5-yl)imidazo[1,2-b]pyridazin-6-yl)morpholine]: the IC50 was below 100 nM in assay [1] and 622 nM in assay [2].

For `C[C@@H]1COCCN1c1cc(-c2ccnn2C)c2cnc(-c3ccn[nH]3)n2n1` [Example 27, (R)-3-methyl-4-(4-(1-methyl-1H-pyrazol-5-yl)-7-(1H-pyrazol-5-yl)imidazo[1,5-b]pyridazin-2-yl)morpholine], the IC50 in assay [1] is below 100 nM; in assay [2], 67 nM.

For the compound `C[C@@H]1COCCN1c1cc(-c2ccnn2C)c2snc(-c3ccn[nH]3)c2n1` [Example 29, (3R)-3-methyl-4-[7-(1-methyl-1H-pyrazol-5-yl)-3-(1H-pyrazol-5-yl)-[1,2]thiazolo[4,5-b]pyridin-5-yl]morpholine], the 50% inhibitory concentration (IC50) is below 100 nM in assay [1] and 14 nM in assay [2].

In the case of `C[C@@H]1COCCN1c1cc(C2(S(C)(=O)=O)CC2)c2cnc(-c3ccn[nH]3)n2n1` [Example 30, (R)-3-methyl-4-(4-(1-(methylsulfonyl)cyclopropyl)-7-(1H-pyrazol-5-yl)imidazo[1,5-b]pyridazin-2-yl)morpholine], the concentration for half-maximal inhibition (IC50) in assay [1] was below 100 nM; in assay [2], 152 nM.

On to `Cc1cc(-c2ncc3c(C4(S(C)(=O)=O)CC4)cc(N4CCOC[C@H]4C)nn23)[nH]n1` [Example 31, (R)-3-methyl-4-(7-(3-methyl-1H-pyrazol-5-yl)-4-(1-(methylsulfonyl)cyclopropyl)imidazo[1,5-b]pyridazin-2-yl)morpholine], for which the half-maximal inhibitory concentration (IC50) is below 100 nM in assay [1] and 84 nM in assay [2].

Regarding `CS(=O)(=O)C1(c2cc(N3C[C@H]4CC[C@@H](C3)O4)nn3c(-c4ccn[nH]4)ncc23)CC1` [Example 32, (1R,5S)-3-(4-(1-(methylsulfonyl)cyclopropyl)-7-(1H-pyrazol-5-yl)imidazo[1,5-b]pyridazin-2-yl)-8-oxa-3-azabicyclo[3.2.1]octane], the IC50 in assay [1] is below 100 nM; in assay [2], 553 nM.

In the case of `Cc1nnn(C)c1-c1cc(N2CCOC[C@H]2C)nn2c(-c3ccn[nH]3)ncc12` [Example 33, (3R)-4-[4-(dimethyl-1H-1,2,3-triazol-5-yl)-7-(1H-pyrazol-5-yl)imidazo[1,5-b]pyridazin-2-yl]-3-methylmorpholine], the IC50 in assay [1] was below 100 nM; in assay [2], 162 nM.

On to `Cc1cc(-c2ncc3c(-c4ccnn4C)cc(N4CCOC[C@H]4C)nn23)[nH]n1` [Example 34, (R)-3-methyl-4-(4-(1-methyl-1H-pyrazol-5-yl)-7-(3-methyl-1H-pyrazol-5-yl)imidazo[1,5-b]pyridazin-2-yl)morpholine], for which the IC50 in assay [1] is below 100 nM; in assay [2], 23 nM.

Turning to `CCP(=O)(CC)c1cc(N2CCOC[C@H]2C)nn2c(-c3ccn[nH]3)ncc12` [Example 39, (3R)-4-[4-(diethylphosphoryl)-7-(1H-pyrazol-5-yl)imidazo[1,5-b]pyridazin-2-yl]-3-methylmorpholine], the IC50 in assay [1] was below 100 nM.

Turning to `Cc1cc(-c2nsc3c(-c4c(C)nnn4C)cc(N4CCOC[C@H]4C)nc23)[nH]n1` [Example 48, (R)-4-(7-(1,4-dimethyl-1H-1,2,3-triazol-5-yl)-3-(3-methyl-1H-pyrazol-5-yl)isothiazolo[4,5-b]pyridin-5-yl)-3-methylmorpholine], the IC50 in assay [1] is below 100 nM; in assay [2], 33.3 nM.

The record behind these values is US20230295166A1, “ATR INHIBITORS AND USES THEREOF” (ANTENGENE DISCOVERY LIMITED, priority 2020, published 2023).
